What was measured:
Assay type in all cases: in vivo
zinnia = assay: Herbicidal activity, post-emergence stem and leaf spray, greenhouse: zinnia control; settings: visual, 0 = no control effect, 100% = complete killing
Protocol: (§1) Seeds of broadleaf weeds (zinnia and piemarker) or grassy weeds (green bristlegrass and barnyard grass) are respectively sown in a paper cup having a diameter of 7 cm and containing nutrient soil; after sowing, the seeds are covered with 1 cm of soil; the soil is pressed and watered, and then the seeds are cultivated in a greenhouse according to a conventional method; and stems and leaves are sprayed after 2-3 leaf stage of the weeds.
(§2) After the original medicinal acetone was dissolved, the test requires to use 1% of Tween 80 to stand in running water to prepare the solution to be tested with a required concentration. According to the design dose of the test, spray treatment was carried out on a track-type crop sprayer (designed and produced by British Engineer Research Ltd.) (spray pressure is 1.95 kg/cm^2, spray volume is 50 L/hm^2 and track speed is 1.48 km/h). The test was repeated for three times. The test material was treated and then placed in an operation hall. The medicinal liquid was naturally dried in the shade, and then was placed in a greenhouse and managed according to the conventional method, The response of the weeds to the drug was observed and recorded, After treatment, the control effects of the test drug on the weeds were visually inspected regularly, expressed by 0-100%. “0” represents no control effect and “100%” represents complete killing.
According to the above test method, part of the compounds of the formula I and KC are selected for activity test of controlling the zinnia.

piemarker = assay: Herbicidal activity, post-emergence stem and leaf spray, greenhouse: piemarker control
Protocol: as §1, §2
According to the above test method, part of the compounds of the formula I and KC are selected for activity test of controlling the piemarker. […]

green bristlegrass = assay: Herbicidal activity, post-emergence stem and leaf spray, greenhouse: green bristlegrass control
Protocol: as §1, §2
According to the above test method, part of the compounds of the formula I and KC are selected for the activity test of controlling the green bristlegrass.

barnyard grass = assay: Herbicidal activity, post-emergence stem and leaf spray, greenhouse: barnyard grass control
Protocol: as §1, §2
According to the above test method, part of the compounds of the formula I and KC are selected for the activity test of controlling the barnyard grass.

[1] = dose 37.5 g a.i./hm2, post-emergence stem and leaf spray
[2] = dose 150 g a.i./hm2, post-emergence stem and leaf spray
[3] = dose 600 g a.i./hm2, post-emergence stem and leaf spray

Row | Structure (SMILES) | Zinnia control activity (after emergence, control effect %) (zinnia; dose 37.5 g a.i./hm^2) | Zinnia control activity (after emergence, control effect %) (zinnia; dose 150 g a.i./hm^2) | Zinnia control activity (after emergence, control effect %) (zinnia; dose 600 g a.i./hm^2) | Piemarker control activity (after emergence, control effect %) (piemarker; [1]) | Piemarker control activity (after emergence, control effect %) (piemarker; [2]) | Piemarker control activity (after emergence, control effect %) (piemarker; [3]) | Green bristlegrass control activity (after emergence, control effect %) (green bristlegrass; [1]) | Green bristlegrass control activity (after emergence, control effect %) (green bristlegrass; [2]) | Green bristlegrass control activity (after emergence, control effect %) (green bristlegrass; [3]) | Barnyard grass control activity (after emergence, control effect %) (barnyard grass; [1]) | Barnyard grass control activity (after emergence, control effect %) (barnyard grass; [2]) | Barnyard grass control activity (after emergence, control effect %) (barnyard grass; [3])
1 | Cn1nnnc1N(C(=O)C1=CCCC1)C(=O)c1ccc(C(F)(F)F)cc1S(C)(=O)=O [Compound 2-266] | 95% | 98% | 100% | 90% | 95% | 100% | 90% | 95% | 100% | 85% | 90% | 95%
2 | Cn1nnnc1N(C(=O)c1ccccc1)C(=O)c1ccc(C(F)(F)F)cc1S(C)(=O)=O [KC, reference compound] | 65% | 90% |  | 60% | 85% |  | 45% | 70% |  | 50% | 65% | 
3 | Cc1c(S(C)(=O)=O)ccc(C(=O)N(C(=O)C2=CCCCC2)c2nnnn2C)c1Cl [Compound 2-97] | 100% | 100% | 100% | 95% | 100% | 100% | 80% | 95% | 100% | 90% | 95% | 100%
4 | COCc1c(S(C)(=O)=O)ccc(C(=O)N(C(=O)C2=CCCCC2)c2nnnn2C)c1Cl [Compound 2-103] | 90% | 95% | 100% | 95% | 100% | 100% | 80% | 90% | 95% | 80% | 90% | 100%

Source: US12319663B2, “Alkene-containing amide compound and application thereof” (SHENYANG SINOCHEM AGROCHEMICALS R&D CO., LTD., priority 2019, dated 2025)
